Drawing on ChEMBL document CHEMBL1156829 (Proc Natl Acad Sci U S A, 2008), this text covers EC50 and CC50 for 54 compounds.

The test system of data set [1] is Plasmodium falciparum. Briefly: NOVARTIS: Inhibition of Plasmodium falciparum 3D7 (drug-susceptible) proliferation in erythrocyte-based infection assay. The format is functional, organism-based. Particulars: Plasmodium falciparum, 3D7.
A short description of data set [2]: NOVARTIS: Cytotoxicity against human hepatocellular carcinoma cell line (Huh7). Particulars: Huh7 cells (hepatocellular carcinoma cell line). Format: toxicity, cell-based, Huh-7.
Data set [3] relates to Plasmodium falciparum. The experiment in a line: NOVARTIS: Inhibition of Plasmodium falciparum W2 (drug-resistant) proliferation in erythrocyte-based infection assay. The format is functional, organism-based. Particulars: Plasmodium falciparum, W2; read-out: EC50.

Usually EC50 stands for the midpoint of the concentration-response curve. As usually defined, the CC50 is the concentration that lowers cell viability or growth by half. A lower CC50 goes with greater toxicity to the cells. Regarding `Oc1cc(-c2ccccc2)nc2ccccc12`, the EC50 amounted to 1060 nM in the data set on Plasmodium falciparum [1] and 547 nM in the data set on Plasmodium falciparum [3]. Also, the cytotoxic concentration (CC50) in data set [2] was above 93200 nM.
In the same order, the values of `N=c1c2ccccc2nnn1-c1ccc(C(F)(F)F)cc1` are 392 nM, 575 nM and above 100000 nM.
Taken in the same sequence, the figures for `CCNC(=O)N(CCCCOc1ccc(C(C)(C)CC)cc1C(C)(C)CC)Cc1ccc(OC)c(OCc2ccccc2)c1` were 595 nM, 61 nM and above 10000 nM.
Taken in the same sequence, the figures for `O=C(Nc1nc(-c2ccccn2)cs1)c1ccc(Oc2ccc(C(=O)Nc3nc(-c4ccccn4)cs3)cc2)cc1` were 2240 nM, 602 nM and above 100000 nM.
Take `CC(=C(Cl)Cl)/C(Br)=C(\Br)CO`: the results for the EC50 in the data set with Plasmodium falciparum [1] and in the data set on Plasmodium falciparum [3] were 179 nM and 59.5 nM, respectively. In data set [2], this compound showed a 50% cytotoxic concentration (CC50) above 10000 nM.
In the same order, the values of `CCOC(=O)N1CCN(C(=O)c2ccc(N3CC4CC(C3)c3cccc(=O)n3C4)c(NS(=O)(=O)c3ccc4c(c3)OCCO4)c2)CC1` (configuration not stated) are 2470 nM, 589 nM and above 100000 nM.
On to `COc1ccc2c(c1)c(C)cc[n+]2Cc1ccccc1`, for which the figures for the concentration giving a half-maximal response (EC50) with Plasmodium falciparum [1] and in the data set with Plasmodium falciparum [3] were 86.2 nM and 118 nM, respectively. Also, half-maximal cytotoxicity in data set [2] (CC50) was put at 20700 nM.
Taken in the same sequence, the figures for `COc1cc(C(=O)NCc2ccco2)ccc1OC1CCN(CC(c2ccccc2)c2ccccc2)CC1` were 118 nM, 58.7 nM and above 10000 nM.
In the same order, the values of `C=C(C)CSc1nc(N)c2c3c(sc2n1)CN(CCC)CC3` are 799 nM, 383 nM and above 66300 nM.
Take `O=C(Nc1ccon1)c1cc(-c2cccnc2)nc2ccc(Cl)cc12`: the EC50 with Plasmodium falciparum [1] is 1500 nM; in the data set with Plasmodium falciparum [3], 606 nM. In data set [2], this compound showed a 50% cytotoxic concentration (CC50) above 100000 nM.
For `CCc1noc(C)c1C(=O)NCCN1Cc2ccccc2OC(c2ccsc2)C1` (configuration not stated), the half-maximal effective concentration (EC50) was determined as 827 nM in the data set on Plasmodium falciparum [1] and 615 nM in the data set on Plasmodium falciparum [3]. Moreover, the CC50 in data set [2] was above 100000 nM.
In the same order, the values of `COc1ccc(C2Nc3ccc([N+](=O)[O-])cc3C3C=CCC32)cc1[N+](=O)[O-]` (configuration not stated) are 1500 nM, 616 nM and above 100000 nM.
`CCCC(c1nnnn1C1CCCCC1)N1CCN(C(=O)c2ccco2)CC1` (configuration not stated): the 50% effective concentration (EC50) with Plasmodium falciparum [1] was determined as 1330 nM; in the data set with Plasmodium falciparum [3], 616 nM. The same compound showed a CC50 in data set [2] above 100000 nM.
In the same order, the values of `Cc1ccc(-n2c(C)c(C(=O)c3ccccc3)c3cc(O)ccc32)cc1` are 508 nM, 615 nM and above 100000 nM.
In the same order, the values of `Oc1ccccc1C=Nc1ccccc1[Te]c1ccccc1N=Cc1ccccc1O` are 3.49 nM, 3.14 nM and 552 nM.
Take `O=C(COc1ccccc1)NC(c1ccco1)c1cc(Cl)c2cccnc2c1O` (configuration not stated): the EC50 stood at 1490 nM with Plasmodium falciparum [1] and 589 nM with Plasmodium falciparum [3]. The same compound yielded a half-maximal cytotoxic concentration (CC50) in data set [2] above 100000 nM.
Taken in the same sequence, the figures for `CC(C)(C)CC(C)(C)Nc1c(-c2ccccc2OC(=O)c2ccccc2Cl)nc2ccccn12` were 822 nM, 58.8 nM and above 10000 nM.
In the same order, the values of `Cc1ccc2c(C)nc(Nc3nc(C)cc(-c4ccccc4)n3)nc2c1` are 975 nM, 569 nM and above 100000 nM.
For `CCCOC(=O)C1=C(C)NC2=C(C(=O)CC(c3ccc(Cl)cc3)C2)C1c1ccc(Cl)cc1` (configuration not stated), the concentration giving a half-maximal response (EC50) in the data set on Plasmodium falciparum [1] turned out to be 294 nM; in the data set with Plasmodium falciparum [3], 398 nM. The compound further gave a 50% cytotoxic concentration (CC50) in data set [2] above 69800 nM.
As to `CCCCC(=O)Oc1ccccc1-c1nc2cc(C)ccn2c1NC(C)(C)CC(C)(C)C`, the values for the EC50 in the data set with Plasmodium falciparum [1] and with Plasmodium falciparum [3] were 854 nM and 57 nM, respectively. Besides, in data set [2], the CC50 is above 10000 nM.
On to `CCOC(=O)C1=C(C)NC2=C(C(=O)CCC2)C1c1ccc([N+](=O)[O-])cc1` (configuration not stated), for which the EC50 with Plasmodium falciparum [1] was 902 nM; in the data set on Plasmodium falciparum [3], 570 nM. Also, the cytotoxic concentration (CC50) in data set [2] was above 100000 nM.
In the same order, the values of `Cc1cc(Nc2ccc(Br)cc2)n2nc(C)nc2n1` are 728 nM, 595 nM and above 100000 nM.
For `CC(=O)Nc1ccc(NC(=O)C(C)(C)CCl)cc1`, the half-maximal effective concentration (EC50) in the data set with Plasmodium falciparum [1] was above 1000 nM; with Plasmodium falciparum [3] it was 62.1 nM. Also, the cytotoxic concentration (CC50) in data set [2] is above 10500 nM.
Taken in the same sequence, the figures for `Cc1cccc(C2Sc3ccccc3N=C3c4ccccc4C(=O)C32)c1` (configuration not stated) were 300 nM, 140 nM and 24400 nM.
In the same order, the values of `O=C(CSc1ccc2nnc(-c3cccs3)n2n1)Nc1ccc2c(c1)OCCO2` are 447 nM, 573 nM and above 100000 nM.
Taken in the same sequence, the figures for `Cc1cc2c(cc1C)N(C(=O)c1ccccc1)C(C)(C)c1ssc(=S)c1-2` were 600 nM, 572 nM and above 100000 nM.
`CCOc1ccc(C(=O)Cn2ccc(=NCc3ccccc3)cc2)cc1[N+](=O)[O-]`: the EC50 in the data set with Plasmodium falciparum [1] turned out to be 69.7 nM; in the data set with Plasmodium falciparum [3] it was 121 nM. Further, the midpoint of cytotoxicity in data set [2], the CC50, lay at 20100 nM.
Taken in the same sequence, the figures for `COc1cccc(C(Nc2cc(C)ccn2)c2ccc3cccnc3c2O)c1` (configuration not stated) were 1110 nM, 562 nM and above 93500 nM.
Consider `COc1ccc(CC2NCC(O)C2OC(C)=O)cc1` (configuration not stated), for which the values for the EC50 with Plasmodium falciparum [1] and with Plasmodium falciparum [3] were 36.9 nM and 48.5 nM, respectively. For the same compound, it took 8110 nM to reach half-maximal cytotoxicity in data set [2] (CC50).
Taken in the same sequence, the figures for `COc1ccc(NC(=O)C=Cc2ccccc2Cl)cc1` were 972 nM, 577 nM and above 100000 nM.
For the compound `C=CCOc1c(Br)cc(C=c2sc3n(c2=O)C(c2ccc(OC)c(OC)c2)C(C(=O)OCC)=C(C)N=3)cc1OC` (configuration not stated), the EC50 in the data set on Plasmodium falciparum [1] is above 12500 nM; in the data set on Plasmodium falciparum [3], 576 nM. The half-maximal cytotoxic concentration (CC50) in data set [2] is above 100000 nM.
In the same order, the values of `O=C(Nc1ccc(-n2cnnn2)cc1)C1CCN(Cc2ccc(OC(F)F)cc2)CC1` are 1590 nM, 266 nM and 46300 nM.
In the same order, the values of `CCOc1ccc(N2C(=O)C3C4CC(C(Br)C4Br)C3C2=O)cc1` (configuration not stated) are above 12500 nM, 441 nM and above 72500 nM.
In the same order, the values of `CCc1ccc(NC(=O)C2c3ccccc3C(=O)N(CC(C)C)C2c2cccs2)cc1` (configuration not stated) are 2300 nM, 607 nM and above 100000 nM.
`CC(=O)N(C1=C(N(C)C)C(=O)c2ccccc2C1=O)c1cccc(O)c1`: the EC50 was determined as 46.7 nM with Plasmodium falciparum [1] and 58.2 nM in the data set on Plasmodium falciparum [3]. The compound further displayed a CC50 in data set [2] above 10000 nM.
`CCOc1ccc(C2C(C(=O)OC)=CNC=C2C(=O)OC)cc1Cl`: the 50% effective concentration (EC50) worked out at 304 nM in the data set on Plasmodium falciparum [1] and 581 nM in the data set on Plasmodium falciparum [3]. Further, the CC50 in data set [2] was above 100000 nM.
Taken in the same sequence, the figures for `CCOC(=O)C1CCN(C(=O)C(=O)Nc2ccc3nc4n(c(=O)c3c2)CCCCC4)CC1` were 998 nM, 580 nM and above 100000 nM.
Turning to `C=CC1CN2CCC1CC2[C@@H](OC(=O)c1ccc(OC)cc1)c1ccnc2ccccc12` (some centres not stated), the concentration giving a half-maximal response (EC50) in the data set with Plasmodium falciparum [1] was 309 nM; in the data set on Plasmodium falciparum [3], 509 nM. The compound further had a CC50 in data set [2] of 87100 nM.
Taken in the same sequence, the figures for `CCNc1nc(OC)nc(Oc2ccc(=O)n(-c3ccccc3)n2)n1` were 548 nM, 584 nM and above 100000 nM.
As for `COc1ccc(-c2c[n+](CC(=O)c3ccccc3)c3n2CCC3)cc1`, the EC50 came to 1200 nM with Plasmodium falciparum [1] and 571 nM in the data set on Plasmodium falciparum [3]. The same compound showed a half-maximal cytotoxic concentration (CC50) in data set [2] above 100000 nM.
Turning to `O=C1C2C(C(=O)N1c1ccc(Cl)c(C(F)(F)F)c1)C1(c3ccccc3)C(=O)C2(c2ccccc2)C(c2ccccc2)=C1c1ccccc1` (configuration not stated), the EC50 was 442 nM in the data set on Plasmodium falciparum [1] and 616 nM in the data set with Plasmodium falciparum [3]. This compound yielded a CC50 in data set [2] above 100000 nM.
Take `COc1ccc(C2=C(c3ccc(OC)cc3)C3(c4ccccc4)C(=O)C2(c2ccccc2)C2C(=O)N(c4ccccc4[N+](=O)[O-])C(=O)C23)cc1` (configuration not stated): the values for the EC50 in the data set on Plasmodium falciparum [1] and in the data set on Plasmodium falciparum [3] were 1190 nM and 580 nM, respectively. In data set [2], this compound yielded a CC50 above 100000 nM.
In the same order, the values of `CC[C@H]1CN2CC[C@@H]1C[C@@H]2[C@@H](O)c1ccnc2ccc(OC)cc12` are 31.8 nM, 57.9 nM and above 10000 nM.
On to `COC(=O)C1=CN(Cc2ccc(OC)cc2)C=C(C(=O)OC)C1c1cccs1`, for which the EC50 stood at 5640 nM in the data set with Plasmodium falciparum [1] and 602 nM in the data set on Plasmodium falciparum [3]. For the same compound, the CC50 in data set [2] was above 100000 nM.
Turning to `CCOC(=O)C1CCN(C(=O)c2cc(C(C)(C)C)nn2Cc2ccc(Cl)cc2Cl)CC1`, the EC50 worked out at 340 nM in the data set with Plasmodium falciparum [1] and 576 nM in the data set with Plasmodium falciparum [3]. In data set [2], this compound showed a CC50 above 100000 nM.
Taken in the same sequence, the figures for `CCOC(=O)c1cnc2c(C)cc(C)cc2c1Nc1ccc(OC)c(OC)c1` were 1780 nM, 583 nM and above 100000 nM.
Consider `CCOc1ccc(N(C(=O)C2COc3ccccc3O2)C(C(=O)NC2CCCCC2)c2cn(C)nc2C)cc1` (configuration not stated), for which the 50% effective concentration (EC50) turned out to be 443 nM with Plasmodium falciparum [1] and 614 nM in the data set with Plasmodium falciparum [3]. Further, the half-maximal cytotoxic concentration (CC50) in data set [2] was above 100000 nM.
As for `N#Cc1c(N)nc(SCC(=O)c2ccc(Cl)cc2)c(C#N)c1-c1ccco1`, the concentration giving a half-maximal response (EC50) in the data set with Plasmodium falciparum [1] was 2280 nM; in the data set with Plasmodium falciparum [3], 595 nM. This compound also gave a cytotoxic concentration (CC50) in data set [2] above 100000 nM.
In the same order, the values of `O=C1CC(c2ccccc2)CC2=C1C(c1cccc(Cl)c1Cl)Nc1ccccc1N2` (configuration not stated) are 288 nM, 464 nM and above 78800 nM.
For the compound `Clc1ccc(Nc2nc(NCc3ccco3)c3ccccc3n2)cc1`, the figures for the EC50 in the data set on Plasmodium falciparum [1] and with Plasmodium falciparum [3] were 113 nM and 92.4 nM, respectively. This compound also gave a CC50 in data set [2] of 15600 nM.
In the same order, the values of `CCCCc1c(CCC)c(=N)c2ccccc2n1C` are 311 nM, 422 nM and 71900 nM.
Taken in the same sequence, the figures for `Cc1nc2c(C)cccc2c(O)c1CC=C(Cl)Cl` were 1110 nM, 609 nM and above 100000 nM.
Turning to `CCOC(=O)c1cnc2c(C)cccc2c1Nc1cccc(C(C)=O)c1`, the EC50 in the data set on Plasmodium falciparum [1] is 1020 nM; in the data set on Plasmodium falciparum [3] it was 607 nM. In data set [2], the CC50 is above 100000 nM.
In the same order, the values of `C=CC[n+]1c(C=C2C=CN(C)C=C2)sc2ccccc21` are 172 nM, 140 nM and 24600 nM.
